Data published in patent US8663607B2, “Ferrate(VI)-containing compositions and methods of using ferrate(VI)” (Battelle Memorial Institute, priority 2007, dated 2014).

How the values were obtained:
[1] = Reactivity of ferrate(VI) in nonpolar media; type: physicochemical; conditions: such as oils, solvents, waxes
[2] = Stain removal from calcium deficient hydroxyapatite disks (human tooth model), tea stain; conditions: disk T: 1 mL of 3% hydrogen peroxide + 0.5 g sodium bicarbonate, applied twice, 5 minutes, water soak 45 minutes
Method: Tea staining Solution: 200 mL of high-purity deionized (HPDI) water was heated to boiling in a 500-mL beaker. The beaker was removed from heat and 4 Lipton™ tea bags were added. The tea bags were allowed to soak for 5 minutes. The tea bags were pressed with a spatμLa upon removal to remove liquid.
Tea staining Procedure: A calcium-deficient hydroxyapatite (HAP) disk (Clarkson Chromatography Products) was placed into a 50-mL centrifuge tube with 10 mL of tea solution. The centrifuge tube was gently shaken by hand for 15 minutes. The tea solution was decanted and replaced with 10 mL of HPDI water and vortexed for 30 seconds. The water was decanted and replaced with 10 additional mL of HPDI water and vortexed for 30 seconds. The disk was removed with forceps and patted dry with a tissue. The disk was allowed to air dry at room temperature for at least one hour.
Oxidation resistant chelating buffer: 0.25M 1-Hydroxyethylidenediphosphonic acid (etridonic acid) (Dequest® 2010, Thermphos) (HEPA) was pH adjusted by microtitration with 10N NaOH. 1.28 g of 1-Hydroxyethylidenediphosphonic acid was to a 25-mL volumetric flask and brought to volume with HPDI water. The solution was transferred to a 50-mL beaker with a stir bar and pH adjusted using 10.04N NaOH, monitored with a calibrated pH meter. Aliquat 336® (Cognis) (also suitable is Aliquat 134®) (N-methyl-tri-(n-octyl)ammonium chloride), (N-methyl TOA) or “HEPA” chelating pH Buffer: 2.5-μL of N-methyl TOA was added to 5 mL of pH 7 HEPA buffer and sonicated for 1 minute. pH 7 Sodium Dodecyl Sulfate (SDS)/HEPA Buffer: 10 mg of SDS was added to 5 mL of pH 7 HEPA buffer and sonicated for 1 minute. pH 8 SDS/HEPA Buffer: 10 mg of SDS was added to 5 mL of pH 8 HEPA buffer and sonicated for 1 minute.
• A. A tea stained disk was placed into the bowl of the bowl of a watch glass and 100 μL of pH 7 HEPA buffer was pipetted onto the disk surface. 3.7 mg of potassium ferrate(VI) was added to the disk surface and mixed gently. […] The disk was rinsed at 10 minutes with HPDI water. […] 1 mL of pH 7 HEPA buffer was added followed by 9 mL of HPDI water. 9.7 mg of potassium ferrate(VI) was added. The tube was gently hand shaken for 10 minutes. The disk was removed and rinsed with HPDI water. […] 10 mg of potassium ferrate(VI) was added to 1 mL of pH 7 HEPA buffer in a 50 mL centrifuge tube. 9 mL HPDI water was added, and the solution was shaken for a few seconds followed by the addition of a tea stained HAP disk. The disk was removed at 10 minutes and rinsed with HPDI water. […] 1.3 mg of potassium ferrate(VI) added and mixed into the solution.

| reactivity in nonpolar media [1] | Compound | L* (lightness/darkness) [2] | a* (blue/red) [2] | appearance of disk after treatment [2] | b* (yellow/green) [2] | reflectance of visible light at 450 nm [2] | reflectance of visible light at 750 nm [2] | ΔE (versus tea stain) [2] |
| --- | --- | --- | --- | --- | --- | --- | --- | --- |
| unreactive | ferrate(VI) | – | – | – | – | – | – | – |
| – | OO [hydrogen peroxide, reference compound] | 96.9 | 0.4 | Much of the color was removed | 0.3 | 89.892 | 94.030 | 13.44 |
